These results are taken from patent publication US10882813B2, “Method for the synthesis of ferric oraganic compounds” (Biophore India Pharmaceuticals Pvt. Ltd., priority 2014, dated 2021).

Data set [1] is described as follows: BET active (specific) surface area analysis, nitrogen adsorbate. The settings on record: for Specific surface area: final product of the synthesis, amorphous powder dried under vacuum at 25-30° C.; for Surface area of the sample: after one blending with water and acetone mixture and drying under vacuum at 50-55° C. The class given is physicochemical. The protocol:
The analysis of BET is according to the method described as: out gassing a portion of the test sample, about 100 mg at 90° C. for 1 hour at ambient pressure using nitrogen as the adsorbate gas.

A short description of data set [2]: Intrinsic dissolution rate. Format: physicochemical. To be noted: final product of the synthesis, amorphous powder.

Values joined by “and” are separate entries in the source; they are usually repeats but may differ in a detail not shown here. Identical values can stand only once.

With Ferric Citrate [Example I], in data set [1], the Specific surface area is 12.36 sq.m/g.

In the case of Ferric Citrate [Example II], the Specific surface area in data set [1] was 10.6 sq.m/g.

Compound Ferric Citrate [Example IV] came in with a Specific surface area in data set [1] of 11.0 sq.m/g. In data set [2], this compound had an Intrinsic dissolution rate of 0.231 mg/sq.cm/min.

With Ferric Citrate [Example V], the Specific surface area in data set [1] is given as 7.8 sq.m/g. The same compound showed an Intrinsic dissolution rate in data set [2] of 0.31 mg/sq.cm/min.

Take Ferric Citrate [Example VI]: the “Surface area of the sample” value in data set [1] turned out to be 10.3 sq.m/g.

As for Ferric Citrate [Example VII], the “Surface area of the sample” value in data set [1] is reported as 20.0 sq.m/g. In data set [1] (after repeating the same water and acetone process), this compound returned a surface area of 12.5 sq.m/g.

Consider Ferric Citrate [Example III], for which the Specific surface area in data set [1] is listed as 12.0 sq.m/g.

Turning to `O=C([O-])CC(O)(CC(=O)[O-])C(=O)[O-].[Fe+3]` [Ferric Citrate, Iron (III) 2-hydroxypropane-1,2,3-tricarboxylate, reference compound], the surface area in data set [1] (starting Ferric Citrate before treatment with water and acetone mixture) was 30.0 Sq.m/g and 28.6 Sq.m/g.
